This note sets out measurements from EPA's ToxValDB 9.5.

For data set [1], the system named is Rattus norvegicus. Conditions: repeat dose other; oral.
The test system of data set [2] is Rattus norvegicus.
The subject of data set [3] is Rattus norvegicus. The source holds these as a separate data set.
Data set [4] deals with Rattus norvegicus. To be noted: oral, gavage.
In data set [5] the test system is Rattus norvegicus. To be noted: oral.
In data set [6] the test system is Rattus norvegicus. Conditions: oral. The source holds these as a separate data set.
In data set [7] the test system is Rattus norvegicus. To be noted: duration: 2 years, oral.
The mark [8] stands for this setting: short-term, duration: 28 days, M, Sprague-Dawley, Clinical Observation: Spontaneous locomotion decrease, Respiratory rate decrease, Incomplete eyelid opening SalivationLacrimation Stool ….
Where [9] appears, read: subchronic, M, increased liver-to-body weight ratio and hepatic microsomal enzyme induction.
The mark [10] stands for this setting: subchronic, M/F, hypoactivity and ataxia.
[11] abbreviates: subchronic, M/F, increased liver weight and centrilobular hypertrophy.
Setting [12] is: reproduction developmental, M/F, reduced mean body weight.
Where [13] appears, read: short-term, duration: 28 days, M, Sprague-Dawley, Clinical Observation: Locomotor activity decrease, Salivation + Functional Observational Battery: Locomotor activity decrease, Salivation + ….
The mark [14] stands for this setting: chronic, duration: 2 years, diet, M/F, increased kidney body weight ratio.

Turning to `Clc1cc2oc3cc(Cl)c(Cl)c(Cl)c3c2cc1Cl` [1,2,3,7,8-Pentachlorodibenzofuran], in the data set with Rattus norvegicus [1], the LOAEL was 0.0016 mg/kg-day and the NOAEL stood at 0.00016 mg/kg-day.
Turning to `ClCC(Cl)CCl` [1,2,3-Trichloropropane], the NOAEL in the data set on Rattus norvegicus [2] (short-term, duration: 11 days, inhalation, M/F, Fischer 344, respiratory) is 6.03 mg/m3; in the data set with Rattus norvegicus [3] (chronic, duration: 120 days, oral, Blood: Decreased hematocrit + Blood: Decreased hemoglobin + Erythrocytes: Decreased count + Kidney: Lesions + Liver: Lesions + Whole body: …), 8 mg/kg-day; in the data set with Rattus norvegicus [4] (setting [8]), less than 15 mg/kg-day. Further, the NOEL with Rattus norvegicus [4] (chronic, duration: 17 weeks, M/F, Fischer 344, Deaths + Body Weight Changes: decrease + Hematology: Hct decrease, RBC decrease, Hgb decrease + Blood Chemistry: Na decrease, Alb increase, …) was less than 8 mg/kg-day; with Rattus norvegicus [4] (setting [8]), less than 15 mg/kg-day.
For `Brc1ccc(Br)c(Br)c1` [1,2,4-Tribromobenzene], the NOAEL in the data set with Rattus norvegicus [3] (subchronic, duration: 45 days, oral, diet, Liver: Altered weight + Liver: Enzyme induction) is 5 mg/kg-day; in the data set on Rattus norvegicus [5] (setting [9]), 5 mg/kg-day. For the same compound, the LOAEL with Rattus norvegicus [5] (setting [9]) was found to be 10 mg/kg-day.
Turning to `C1=CCC=C1` [1,3-Cyclopentadiene], the NOEL with Rattus norvegicus [3] (chronic, duration: 194 days, inhalation, intermittent, Kidney: Lesions + Liver: Lesions) was 87.3 mg/kg-day.
For the compound `CCCCO` [1-Butanol], the NOAEL in the data set on Rattus norvegicus [3] (subchronic, duration: 13 weeks, oral, gavage, Central nervous system: Ataxia + Central nervous system: Hypoactivity) came to 125 mg/kg-day. In the data set with Rattus norvegicus [5] (setting [10]), the LOAEL came to 500 mg/kg-day and the NOAEL was found to be 125 mg/kg-day.
Take `Oc1c(Cl)cc(Cl)c(Cl)c1Cl` [2,3,4,6-Tetrachlorophenol]: the no observed adverse effect level (NOAEL) in the data set with Rattus norvegicus [3] (subchronic, duration: 90 days, oral, gavage, Liver: Centrilobular hypertrophy + Liver: Increased weight) is 25 mg/kg-day; with Rattus norvegicus [5] (setting [11]), 25 mg/kg-day. For the same compound, the LOAEL with Rattus norvegicus [5] (setting [11]) came out at 100 mg/kg-day.
In the data set with Rattus norvegicus [6] (chronic, duration: 6 months, diet, M, Osborne-Mendel), `Cc1ccc(N)c(C)c1` [2,4-Dimethylaniline] had an LOAEL of 18 mg/kg-day.
`N#CSCSc1nc2ccccc2s1` [2-(Thiocyanomethylthio)benzothiazole] displayed an NOEL in the data set on Rattus norvegicus [3] (subchronic, oral, diet, Stomach: Lesions) of 25 mg/kg-day.
`O=C=Nc1ccc(Cc2ccc(N=C=O)cc2)cc1` [4,4'-Diphenylmethane diisocyanate] returned an NOAEL in the data set with Rattus norvegicus [3] (chronic, duration: 24 months, inhalation, intermittent, Nasal cavity: Lesions) of 0.2 mg/m3.
`O=S(=O)(O)c1ccc(Cl)cc1` [4-Chlorobenzenesulphonic acid] gave an NOAEL in the data set with Rattus norvegicus [6] (subchronic, duration: 32 days, gavage, M/F, S-D) of 1800 mg/kg-day.
For `COc1cc2c(c3oc(=O)c4c(c13)CCC4=O)[C@]1(O)C=CO[C@@H]1O2` [Aflatoxin M1], the NOEL in the data set with Rattus norvegicus [7] (chronic, diet, M, Fischer 344, Carcinogenicity) is 0.1 mg.
With `[O]=[Sb][O][Sb](=[O])=[O]` [Antimony oxide (Sb2O4)], in the data set on Rattus norvegicus [3] (chronic, oral, drinking water, Blood: Altered chemistries + Whole body: Increased mortality), the LOAEL was 0.44 mg/kg-day.
As to `FB(F)F` [Boron trifluoride], the NOAEL with Rattus norvegicus [3] (subchronic, duration: 13 weeks, inhalation, intermittent, Kidney: Necrosis) was determined as 6 mg/m3.
As to `O=C1C2CC=CCC2C(=O)N1SC(Cl)(Cl)Cl` (configuration not stated) [Captan], the NOEL with Rattus norvegicus [3] (subchronic, oral, diet, Whole body: Decreased weight) was 12.5 mg/kg-day; with Rattus norvegicus [5] (setting [12]), 12.5 mg/kg-day. Moreover, in the data set with Rattus norvegicus [5] (setting [12]), the LEL was 25 mg/kg-day.
In the case of `ClC(Cl)(Cl)Cl` [Carbon tetrachloride], the NOAEL was 31.5 mg/m3 in the data set with Rattus norvegicus [2] (chronic, duration: 104 weeks, inhalation, whole body, M/F, Fischer 344, hepatic); 31.5 mg/m3 in the data set with Rattus norvegicus [2] (chronic, duration: 205 days, inhalation, M/F, Wistar, hepatic); 1 mg/kg-day in the data set with Rattus norvegicus [2] (subchronic, duration: 12 weeks, oral, gavage, M, Sprague-Dawley, hepatic); 16 mg/kg-day with Rattus norvegicus [1]; less than 20 mg/kg-day in the data set with Rattus norvegicus [4] (setting [13]). The LOAEL in the data set with Rattus norvegicus [2] (short-term, duration: 10 days, oral, gavage, M, Fischer 344, hepatic) was 5 mg/kg-day. Besides, the NOEL in the data set with Rattus norvegicus [4] (setting [13]) was less than 20 mg/kg-day.
With `Cc1cc(C(C#N)c2ccc(Cl)cc2)c(Cl)cc1NC(=O)c1cc(I)cc(I)c1O` (configuration not stated) [Closantel], the NOEL was determined as 2.5 mg/kg-day in the data set on Rattus norvegicus [7] (chronic, diet, M/F, Wistar, Increased incidences of sperm granulomas in the epididymes of male rats) and 2.5 mg/kg-day in the data set with Rattus norvegicus [7] (dietary / carcinogenicity, feed, M/F, Wistar, Increased incidences of sperm granulomas in the epididymes of male rats).
For `NC1CCCCC1` [Cyclohexylamine], the NOAEL in the data set with Rattus norvegicus [3] (subchronic, duration: 90 days, oral, diet, Testis: Decreased weight + Whole body: Decreased weight gain) amounted to 30 mg/kg-day. In the data set on Rattus norvegicus [5] (chronic, M, testicular damage), this compound displayed an LOAEL of 60 mg/kg-day and a no-observed-adverse-effect level (NOAEL) of 18 mg/kg-day.
The compound `CC(Cl)(Cl)C(=O)O` [Dalapon] registered an NOEL with Rattus norvegicus [3] (chronic, duration: 2 years, oral, diet, Kidney: Increased relative weight) of 8.45 mg/kg-day. In addition, in the data set on Rattus norvegicus [5] (setting [14]), the LEL was found to be 28.2 mg/kg-day and the NOEL came to 8.45 mg/kg-day.
